The source made the active and inactive calls.
Assays:
[1] = test system: Streptococcus sp. 'group A'; assay: Streptococcus pyogenes SK(-)GAS viability under kanamycin – luminescence, BacTiterGlo, confirmation, counter-screen for streptokinase expression inhibitor project, dose response (AID 1900); type: functional, organism-based
Streptococcus = assay: GAS UMAA2166 growth inhibition – luminescence, BacTiterGlo, counter-screen for streptokinase expression inhibitor project, dose response (AID 1915); type: functional, organism-based;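 also: potency for reduction of bacterial viability or growth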
Vero [2] = assay: viability of Vero cells under compound – cytotoxicity control for flavivirus capping enzyme inhibitors (AID 588742); type: functional; conditions: Chlorocebus sabaeus
[3] = Luminescence Cell-Based Dose Response HTS to Identify Inhibitors of 5'UTR Stem-Loop Driven Prion Protein mRNA Translation in H4 Neuroglioblastoma Cells. [Related pubchem assays: 1827 (Project Summary), 1813 (Primary HTS)]; type: functional
Vero [4] = assay: cells; type: functional; conditions: Chlorocebus sabaeus
[5] = luciferase reporter signal suppression in cells – H4 neuroglioma cells, luminescence, dose response (AID 1990); type: functional, cell-based
Cytochrome P450 1A2 = biological target: T1, Cytochrome P450 1A2 (Homo sapiens, UniProt P05177);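 also: PubChem cytochrome P450 panel assay, CYP1A2 panel member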
T1 sequence (P05177 whole entry): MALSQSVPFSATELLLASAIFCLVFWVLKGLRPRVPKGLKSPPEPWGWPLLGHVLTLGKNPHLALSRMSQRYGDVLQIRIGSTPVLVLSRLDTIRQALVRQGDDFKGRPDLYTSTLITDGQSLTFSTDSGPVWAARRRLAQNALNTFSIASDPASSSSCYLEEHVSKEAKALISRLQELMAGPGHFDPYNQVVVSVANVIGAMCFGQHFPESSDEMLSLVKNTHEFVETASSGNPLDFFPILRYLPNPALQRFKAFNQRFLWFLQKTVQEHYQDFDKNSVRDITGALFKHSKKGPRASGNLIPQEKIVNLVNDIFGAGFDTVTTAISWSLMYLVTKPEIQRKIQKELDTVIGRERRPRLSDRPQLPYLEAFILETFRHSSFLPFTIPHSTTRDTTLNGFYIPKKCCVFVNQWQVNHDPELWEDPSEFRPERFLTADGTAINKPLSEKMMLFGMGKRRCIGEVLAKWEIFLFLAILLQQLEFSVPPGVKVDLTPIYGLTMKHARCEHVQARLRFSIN

HEK293 = assay: EBV LMP1 TES2 canonical NF-kB signalling blockers – cell-based, HEK293, luciferase, cherry-pick, dose response (AID 588343); type: functional; conditions: Homo sapiens
Genome polyprotein = Genome polyprotein (dengue virus type 2, UniProt P29990); assay: flavivirus cap methylation enzyme inhibition – biochemical, confirmation dose response, primary screen (AID 588689); type: functional
Sequence of Genome polyprotein (P29990 2492-3391 limits assumed): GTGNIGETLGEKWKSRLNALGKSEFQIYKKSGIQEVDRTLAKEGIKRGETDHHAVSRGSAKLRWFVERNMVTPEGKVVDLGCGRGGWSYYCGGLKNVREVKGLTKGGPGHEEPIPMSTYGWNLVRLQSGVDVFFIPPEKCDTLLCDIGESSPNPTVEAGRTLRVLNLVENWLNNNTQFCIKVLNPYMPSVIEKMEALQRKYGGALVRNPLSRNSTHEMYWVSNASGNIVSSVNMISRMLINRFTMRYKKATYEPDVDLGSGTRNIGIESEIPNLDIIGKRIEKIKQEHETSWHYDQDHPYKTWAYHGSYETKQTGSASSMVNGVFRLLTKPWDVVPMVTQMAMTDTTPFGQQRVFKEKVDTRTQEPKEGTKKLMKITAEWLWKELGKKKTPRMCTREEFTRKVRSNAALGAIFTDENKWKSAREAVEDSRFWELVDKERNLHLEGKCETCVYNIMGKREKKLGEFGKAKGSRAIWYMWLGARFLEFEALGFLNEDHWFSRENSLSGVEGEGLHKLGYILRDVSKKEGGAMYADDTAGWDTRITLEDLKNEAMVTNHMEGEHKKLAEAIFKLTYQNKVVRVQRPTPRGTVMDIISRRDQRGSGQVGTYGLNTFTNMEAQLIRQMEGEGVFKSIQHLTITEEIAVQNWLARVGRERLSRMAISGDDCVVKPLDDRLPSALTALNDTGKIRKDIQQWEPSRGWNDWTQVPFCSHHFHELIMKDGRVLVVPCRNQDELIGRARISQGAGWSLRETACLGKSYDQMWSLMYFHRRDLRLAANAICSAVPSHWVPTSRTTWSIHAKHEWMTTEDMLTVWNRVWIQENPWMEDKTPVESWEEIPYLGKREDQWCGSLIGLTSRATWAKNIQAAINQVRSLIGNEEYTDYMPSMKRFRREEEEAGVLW

Cytochrome P450 2C9 = Cytochrome P450 2C9 (Homo sapiens, UniProt P11712)
Sequence of Cytochrome P450 2C9 (P11712 whole entry): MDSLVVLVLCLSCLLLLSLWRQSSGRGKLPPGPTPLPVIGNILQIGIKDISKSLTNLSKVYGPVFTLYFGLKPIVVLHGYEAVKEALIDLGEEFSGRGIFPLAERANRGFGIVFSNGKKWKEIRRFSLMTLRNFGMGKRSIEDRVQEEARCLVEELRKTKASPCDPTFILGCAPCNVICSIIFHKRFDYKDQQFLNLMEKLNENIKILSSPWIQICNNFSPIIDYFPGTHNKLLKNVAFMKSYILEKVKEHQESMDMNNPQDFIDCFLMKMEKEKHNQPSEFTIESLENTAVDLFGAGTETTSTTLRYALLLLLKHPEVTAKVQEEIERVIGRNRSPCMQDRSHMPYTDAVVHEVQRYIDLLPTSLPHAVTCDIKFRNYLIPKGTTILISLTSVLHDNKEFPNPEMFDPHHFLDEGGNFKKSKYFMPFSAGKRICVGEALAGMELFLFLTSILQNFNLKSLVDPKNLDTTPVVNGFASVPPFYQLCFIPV

Cytochrome P450 3A4 = Cytochrome P450 3A4 (Homo sapiens, UniProt P08684);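 also: CYP3A4 tested as one member of a cytochrome P450 panel screen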
Sequence of Cytochrome P450 3A4 (P08684 whole entry): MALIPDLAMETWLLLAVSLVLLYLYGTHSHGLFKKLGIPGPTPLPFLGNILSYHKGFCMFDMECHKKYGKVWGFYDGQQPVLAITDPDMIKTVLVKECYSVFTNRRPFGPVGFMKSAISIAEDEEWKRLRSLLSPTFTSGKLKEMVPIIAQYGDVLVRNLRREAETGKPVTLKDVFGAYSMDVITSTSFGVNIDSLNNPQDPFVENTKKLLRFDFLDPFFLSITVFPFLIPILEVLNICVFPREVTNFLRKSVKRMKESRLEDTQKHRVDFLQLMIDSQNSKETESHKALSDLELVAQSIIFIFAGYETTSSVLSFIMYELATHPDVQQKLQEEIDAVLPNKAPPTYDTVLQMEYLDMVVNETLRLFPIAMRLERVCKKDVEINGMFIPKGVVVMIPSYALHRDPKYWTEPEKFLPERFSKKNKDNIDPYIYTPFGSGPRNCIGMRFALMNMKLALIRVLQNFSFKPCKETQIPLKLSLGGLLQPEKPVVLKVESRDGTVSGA

Cytochrome P450 2C19 = Cytochrome P450 2C19 (Homo sapiens, UniProt P33261); assay: Cytochrome panel assay with activity outcomes. Panel member name: p450-cyp2c19 Compounds with AC50 equal or less than 10 uM are considered active; type: functional; conditions: read-out: AC50
Sequence of Cytochrome P450 2C19 (P33261 whole entry): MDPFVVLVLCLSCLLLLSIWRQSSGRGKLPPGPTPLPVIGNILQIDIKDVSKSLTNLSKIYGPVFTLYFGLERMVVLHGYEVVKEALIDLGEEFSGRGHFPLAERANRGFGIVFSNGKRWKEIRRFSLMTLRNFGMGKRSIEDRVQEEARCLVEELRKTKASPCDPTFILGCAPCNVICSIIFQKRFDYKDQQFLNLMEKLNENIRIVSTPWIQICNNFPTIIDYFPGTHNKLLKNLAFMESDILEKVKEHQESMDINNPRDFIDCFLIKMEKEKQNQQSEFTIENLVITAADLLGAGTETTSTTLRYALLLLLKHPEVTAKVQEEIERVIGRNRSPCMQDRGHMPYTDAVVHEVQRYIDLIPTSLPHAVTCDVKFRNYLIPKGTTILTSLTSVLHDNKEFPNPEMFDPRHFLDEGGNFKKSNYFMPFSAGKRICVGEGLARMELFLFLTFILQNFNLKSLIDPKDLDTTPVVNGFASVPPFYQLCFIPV

Caspase-3 = biological target: T2, Caspase-3 (Homo sapiens, UniProt P42574); type: functional;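 also: Dose-response selectivity test against caspase-3 for candidate inhibitors of sentrin-specific proteases (SENPs)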
T2 sequence (P42574 whole entry): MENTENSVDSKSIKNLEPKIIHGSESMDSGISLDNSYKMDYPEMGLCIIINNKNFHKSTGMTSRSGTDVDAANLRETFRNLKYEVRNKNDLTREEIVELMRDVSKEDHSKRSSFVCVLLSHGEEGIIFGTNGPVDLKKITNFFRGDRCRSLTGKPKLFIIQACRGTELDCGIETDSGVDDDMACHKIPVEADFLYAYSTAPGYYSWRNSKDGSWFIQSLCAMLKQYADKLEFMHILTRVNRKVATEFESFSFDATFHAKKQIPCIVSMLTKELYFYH

[6] = biological target: T3, Sentrin-specific protease 8 (Homo sapiens, UniProt Q96LD8); type: functional;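 also: luminescence read-out of SENP8 inhibition, dose-response confirmation following an ultra-high-throughput screen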
T3 sequence (Q96LD8 whole entry): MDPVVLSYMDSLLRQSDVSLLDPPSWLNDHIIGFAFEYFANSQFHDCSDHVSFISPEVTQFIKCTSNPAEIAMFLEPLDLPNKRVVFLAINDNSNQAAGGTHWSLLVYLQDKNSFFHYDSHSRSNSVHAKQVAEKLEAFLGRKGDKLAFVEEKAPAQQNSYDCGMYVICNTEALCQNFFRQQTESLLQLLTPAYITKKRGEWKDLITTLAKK

[7] = biological target: T4, Sentrin-specific protease 7 (Homo sapiens, UniProt Q9BQF6); type: functional;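 also: Luminescence-based dose-response confirmation of ultra-high-throughput screening hits, measuring inhibition of SENP7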
T4 sequence (Q9BQF6 whole entry): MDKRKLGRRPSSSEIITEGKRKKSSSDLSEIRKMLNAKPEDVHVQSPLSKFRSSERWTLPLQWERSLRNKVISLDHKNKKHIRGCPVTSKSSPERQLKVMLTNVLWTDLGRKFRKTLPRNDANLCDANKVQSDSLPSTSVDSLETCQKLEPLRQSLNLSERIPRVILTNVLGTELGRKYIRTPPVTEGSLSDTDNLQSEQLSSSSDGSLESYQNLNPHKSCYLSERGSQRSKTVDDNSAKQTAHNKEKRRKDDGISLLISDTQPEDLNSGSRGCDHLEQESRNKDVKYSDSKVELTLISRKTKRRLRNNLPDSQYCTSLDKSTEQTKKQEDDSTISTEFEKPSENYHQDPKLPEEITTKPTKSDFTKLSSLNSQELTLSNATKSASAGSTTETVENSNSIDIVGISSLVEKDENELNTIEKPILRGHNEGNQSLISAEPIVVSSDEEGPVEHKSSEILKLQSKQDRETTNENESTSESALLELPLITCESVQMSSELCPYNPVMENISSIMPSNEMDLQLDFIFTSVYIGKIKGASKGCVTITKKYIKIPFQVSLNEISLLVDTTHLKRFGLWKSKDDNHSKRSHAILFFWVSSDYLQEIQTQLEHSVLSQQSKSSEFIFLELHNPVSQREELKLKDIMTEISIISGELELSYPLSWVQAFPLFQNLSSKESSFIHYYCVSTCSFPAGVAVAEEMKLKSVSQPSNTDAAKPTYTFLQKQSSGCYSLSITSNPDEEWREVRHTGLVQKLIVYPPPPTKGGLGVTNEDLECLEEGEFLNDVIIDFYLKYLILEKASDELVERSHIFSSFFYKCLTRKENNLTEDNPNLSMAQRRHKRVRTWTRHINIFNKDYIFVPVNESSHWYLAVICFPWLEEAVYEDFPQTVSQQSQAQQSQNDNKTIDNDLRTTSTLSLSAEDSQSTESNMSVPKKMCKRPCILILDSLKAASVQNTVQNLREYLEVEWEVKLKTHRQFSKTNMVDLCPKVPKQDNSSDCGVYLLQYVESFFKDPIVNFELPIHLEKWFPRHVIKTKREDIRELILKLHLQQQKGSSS

[8] = biological target: T5, Sentrin-specific protease 6 (Homo sapiens, UniProt Q9GZR1); type: functional;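 also: Luminescence-based dose-response confirmatory assay of SENP6 inhibition, following up an ultra-high-throughput screen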
T5 sequence (Q9GZR1 whole entry): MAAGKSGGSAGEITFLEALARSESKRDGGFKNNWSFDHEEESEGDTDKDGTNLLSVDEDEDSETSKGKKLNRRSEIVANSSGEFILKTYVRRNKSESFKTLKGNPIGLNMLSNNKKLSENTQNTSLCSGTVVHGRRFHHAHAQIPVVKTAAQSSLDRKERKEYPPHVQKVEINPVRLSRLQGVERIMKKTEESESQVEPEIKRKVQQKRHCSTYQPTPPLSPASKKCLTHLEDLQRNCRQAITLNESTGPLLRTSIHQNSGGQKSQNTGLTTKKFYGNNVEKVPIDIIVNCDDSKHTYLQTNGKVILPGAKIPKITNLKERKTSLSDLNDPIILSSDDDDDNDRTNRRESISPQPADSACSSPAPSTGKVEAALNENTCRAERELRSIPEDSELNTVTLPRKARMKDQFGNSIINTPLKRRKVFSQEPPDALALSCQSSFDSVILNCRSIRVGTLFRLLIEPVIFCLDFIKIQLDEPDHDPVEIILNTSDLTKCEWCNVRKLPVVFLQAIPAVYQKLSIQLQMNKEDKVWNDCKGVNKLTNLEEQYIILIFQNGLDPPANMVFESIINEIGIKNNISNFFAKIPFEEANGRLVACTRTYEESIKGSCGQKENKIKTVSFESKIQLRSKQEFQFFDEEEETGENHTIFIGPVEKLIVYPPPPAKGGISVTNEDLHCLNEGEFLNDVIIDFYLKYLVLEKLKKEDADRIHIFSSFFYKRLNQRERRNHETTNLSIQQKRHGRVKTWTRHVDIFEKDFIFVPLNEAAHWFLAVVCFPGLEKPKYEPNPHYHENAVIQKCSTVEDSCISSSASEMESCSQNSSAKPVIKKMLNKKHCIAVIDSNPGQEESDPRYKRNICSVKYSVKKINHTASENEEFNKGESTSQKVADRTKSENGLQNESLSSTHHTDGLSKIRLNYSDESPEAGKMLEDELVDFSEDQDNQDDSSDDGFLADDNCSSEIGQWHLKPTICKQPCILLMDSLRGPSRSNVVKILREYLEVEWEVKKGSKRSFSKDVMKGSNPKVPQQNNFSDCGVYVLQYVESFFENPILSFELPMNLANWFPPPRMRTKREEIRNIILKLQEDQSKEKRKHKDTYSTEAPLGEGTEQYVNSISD

[9] = biological target: T6, Histone-lysine N-methyltransferase NSD2 (Homo sapiens, UniProt O96028); type: biochemical
T6 sequence (O96028 whole entry): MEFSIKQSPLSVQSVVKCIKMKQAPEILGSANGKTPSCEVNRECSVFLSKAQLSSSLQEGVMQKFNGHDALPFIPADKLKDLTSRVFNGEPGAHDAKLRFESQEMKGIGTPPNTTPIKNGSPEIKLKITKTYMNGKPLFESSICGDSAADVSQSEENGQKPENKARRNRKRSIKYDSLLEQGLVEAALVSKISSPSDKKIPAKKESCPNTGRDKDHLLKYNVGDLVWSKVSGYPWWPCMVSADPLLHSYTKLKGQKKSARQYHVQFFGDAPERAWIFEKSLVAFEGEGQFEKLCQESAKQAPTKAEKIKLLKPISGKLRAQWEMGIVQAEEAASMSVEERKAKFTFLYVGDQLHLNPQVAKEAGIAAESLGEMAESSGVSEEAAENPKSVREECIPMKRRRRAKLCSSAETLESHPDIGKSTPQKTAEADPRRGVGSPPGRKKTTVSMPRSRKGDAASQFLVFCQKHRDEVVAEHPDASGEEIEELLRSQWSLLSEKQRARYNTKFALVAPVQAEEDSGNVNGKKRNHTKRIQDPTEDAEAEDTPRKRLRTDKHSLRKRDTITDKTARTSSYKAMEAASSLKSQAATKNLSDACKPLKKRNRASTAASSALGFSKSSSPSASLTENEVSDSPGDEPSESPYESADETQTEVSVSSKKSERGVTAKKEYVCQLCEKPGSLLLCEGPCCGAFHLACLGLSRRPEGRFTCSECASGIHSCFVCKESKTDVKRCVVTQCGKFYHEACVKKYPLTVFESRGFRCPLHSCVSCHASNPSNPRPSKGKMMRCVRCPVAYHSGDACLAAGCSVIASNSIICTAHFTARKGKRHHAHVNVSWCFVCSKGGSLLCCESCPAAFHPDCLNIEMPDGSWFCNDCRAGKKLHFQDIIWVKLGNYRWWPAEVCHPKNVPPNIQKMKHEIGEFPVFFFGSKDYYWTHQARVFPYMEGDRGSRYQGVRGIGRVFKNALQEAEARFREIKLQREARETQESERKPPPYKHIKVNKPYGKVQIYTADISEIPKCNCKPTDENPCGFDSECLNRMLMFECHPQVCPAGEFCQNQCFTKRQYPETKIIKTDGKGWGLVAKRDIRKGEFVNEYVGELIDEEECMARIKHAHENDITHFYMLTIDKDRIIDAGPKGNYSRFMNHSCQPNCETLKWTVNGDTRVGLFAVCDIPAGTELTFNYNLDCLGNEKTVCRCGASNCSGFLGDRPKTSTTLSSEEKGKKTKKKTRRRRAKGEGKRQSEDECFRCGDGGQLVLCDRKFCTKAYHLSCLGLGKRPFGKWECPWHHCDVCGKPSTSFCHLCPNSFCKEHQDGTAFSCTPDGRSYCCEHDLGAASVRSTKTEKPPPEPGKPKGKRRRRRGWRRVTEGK

## Cc1n[nH]c(O)c1C(c1c(C)n[nH]c1O)c1cn(Cc2ccc(Cl)c(Cl)c2)c2ccccc12
[1]
  EC50: 4.35 µM (active)
Streptococcus
  EC50: 77.9 µM (active)
Vero [2]
  CC50: 5.47 µM (active)
[3]
  EC50: 0.26 µM (active)
Vero [4]
  CC50: 10.1 µM (active)
[5]
  EC50: 13.6 µM (active)

## Cc1sc2c(c1C)C(c1ccc(C(C)(C)C)cc1)=NCC(=O)N2CC(=O)Nc1nccs1
Vero [2]
  CC50: > 40 µM (active)
Cytochrome P450 1A2
  AC50: 22.4 µM (inconclusive)

## COc1ccc(N2Cc3ccccc3C2=O)cc1
HEK293
  AC50: 12.5 µM (active)

## CC(=O)Nc1ccc(C=NNc2nnc(NN=Cc3ccc(NC(C)=O)cc3)c3ccccc23)cc1
HEK293
  AC50: 0.932 µM (active)

## NC(=S)N=Nc1c(O)cc(O)c2nc(O)ccc12
Vero [2]
  CC50: > 40 µM (active)
Genome polyprotein
  IC50: 20 µM (active)

## CCc1ccc(C(=O)COC(=O)c2cccc(N3C(=O)c4c(C)nc5ccccc5c4C3=O)c2)cc1
Cytochrome P450 2C9
  AC50: 3.16 µM (inconclusive)
Cytochrome P450 3A4
  AC50: 22.4 µM (inconclusive)
Cytochrome P450 2C19
  AC50: 7.08 µM (inconclusive)
HEK293
  AC50: 16.7 µM (active)

## COc1ccc(NC(=O)c2ccc(OCC3CCCO3)cc2)cc1Cl (centres undefined)
Caspase-3
  IC50: 15.6 µM (active)
[6]
  IC50: > 100 µM (inactive)
[7]
  IC50: 5.56 µM (active)
[8]
  IC50: > 100 µM (inactive)

## Cc1ccc(S(=O)(=O)/N=C2\C=C(NS(=O)(=O)c3ccccc3)C(=O)c3ccccc32)cc1
Vero [2]
  CC50: > 40 µM (active)
Genome polyprotein
  IC50: 35.8 µM (active)
[9]
  AC50: 2.18 µM (active)

## O=C(Nc1nc2ccc(F)cc2s1)C1=COCCO1
HEK293
  AC50: 2.38 µM (active)

## CCOc1ccc(/N=C/c2c(O)oc3ccccc3c2=O)cc1
Caspase-3
  IC50: 32.8 µM (active)
[6]
  IC50: > 100 µM (inactive)
[7]
  IC50: 6.32 µM (active)
[8]
  IC50: 26.2 µM (active)

## NC(=O)c1ccccc1N/C=C/C(=O)c1cccs1
HEK293
  AC50: 22.5 µM (active)
